According to ChEMBL document CHEMBL5052819, “Peptide targeting gip and glp-2 receptors for treating bone disorders” (2020):
The source made the active and inactive calls. The rule behind the calls is not given here.

How the values were obtained:
RAW264.7 = experiment: Inhibition of RANKL-induced osteoclastogenesis in mouse RAW264.7 cells measured after 110 hrs by TRAcP staining based assay; assay type: functional, cell-based; details: RAW264.7, 110 h
HEK293 = experiment: Activation of GIP/GLP2 receptor transfected in human HEK293 cells assessed as increase in intracellular cAMP level at 1 nM; assay type: cell-based; details: filed as activator
Mus musculus [1] = experiment: Anti-osteoporosis activity in ovariectomized BALB/c mouse at 25 nmol/kg, sc assessed as increase in collagen maturity; assay type: functional
MC3T3-E1 = experiment: Cytotoxicity against mouse MC3T3-E1 cells at 1 uM measured after 24 hrs by trypan blue assay; assay type: toxicity, cell-based; details: mc3t3-e1, 24 h
[2] = Toxicity in ovariectomized BALB/c mouse at 25 nmol/kg, sc assessed as effect on morphological changes in pancreas; assay type: organism-based; details: in vivo
[3] = Toxicity in ovariectomized BALB/c mouse assessed as effect on body mass at 25 nmol/kg/day, sc; details: in vivo
Mus musculus [4] = experiment: Anti-osteoporosis activity in ovariectomized BALB/c mouse at 25 nmol/kg, sc assessed as increase in acid phosphate content heterogeneity; assay type: functional
Mus musculus [5] = experiment: Anti-osteoporosis activity in ovariectomized BALB/c mouse at 25 nmol/kg/day, sc assessed as reduction in trabecular bone stiffness; assay type: functional, organism-based
Mus musculus [6] = experiment: Anti-osteoporosis activity in ovariectomized BALB/c mouse at 25 nmol/kg, sc assessed as decrease in mean phosphate/amide ratio; assay type: functional; design: scale not given: the % may be the effect or the level left
Mus musculus [7] = experiment: Anti-osteoporosis activity in ovariectomized BALB/c mouse at 25 nmol/kg, sc assessed as increase in collagen maturity heterogeneity; assay type: functional
Mus musculus [8] = experiment: Anti-osteoporosis activity in ovariectomized BALB/c mouse at 25 nmol/kg/day, sc assessed as effect on cortical bone microarchitecture; assay type: functional, organism-based
Mus musculus [9] = experiment: Anti-osteoporosis activity in ovariectomized BALB/c mouse at 25 nmol/kg/day, sc assessed as increase in work-to-fracture of cortical bone; assay type: functional
Mus musculus [10] = experiment: Anti-osteoporosis activity in ovariectomized BALB/c mouse at 25 nmol/kg/day, sc assessed as increase in post-yield displacement of cortical bone; assay type: functional
Mus musculus [11] = experiment: Anti-osteoporosis activity in ovariectomized BALB/c mouse at 25 nmol/kg/day, sc assessed as increase in ultimate displacement of cortical bone; assay type: functional
[12] = Toxicity in ovariectomized BALB/c mouse at 25 nmol/kg, sc assessed as effect on morphological changes in liver; assay type: organism-based; details: in vivo
[13] = Toxicity in ovariectomized BALB/c mouse assessed as effect on body mass at 25 to 100 nmol/kg/day, sc

CC[C@H](C)[C@H](NC(=O)[C@H](CO)NC(=O)[C@H](Cc1ccccc1)NC(=O)[C@H](CC(=O)O)NC(=O)[C@H](CO)NC(=O)[C@@H](NC(=O)[C@H](Cc1ccccc1)NC(=O)[C@H](CO)NC(=O)CNC(=O)[C@H](CCC(=O)O)NC(=O)CNC(=O)[C@@H](N)Cc1cnc[nH]1)[C@@H](C)O)C(=O)N[C@@H](C)C(=O)N[C@@H](CC(C)C)C(=O)N[C@@H](CC(=O)O)C(=O)N[C@@H](CCCCN)C(=O)N[C@@H](CC(C)C)C(=O)N[C@@H](C)C(=O)N[C@@H](C)C(=O)N[C@@H](CCCNC(=N)N)C(=O)N[C@@H](CC(=O)O)C(=O)N[C@@H](Cc1ccccc1)C(=O)N[C@H](C(=O)N[C@@H](CC(N)=O)C(=O)N[C@@H](Cc1c[nH]c2ccccc12)C(=O)N[C@@H](CC(C)C)C(=O)N[C@@H](CC(C)C)C(=O)N[C@@H](CCC(N)=O)C(=O)N[C@H](C(=O)N[C@@H](CCCCN)C(N)=O)[C@@H](C)O)C(C)C
IC50 (RAW264.7): 0.0168 nM

CC(C)C[C@H](NC(=O)[C@H](CCCCN)NC(=O)[C@H](CC(=O)O)NC(=O)[C@H](CC(C)C)NC(=O)[C@@H](NC(=O)[C@@H](NC(=O)[C@H](CO)NC(=O)[C@H](CC(C)C)NC(=O)[C@H](CC(=O)O)NC(=O)[C@H](CO)NC(=O)[C@@H](NC(=O)[C@H](Cc1ccccc1)NC(=O)[C@H](CO)NC(=O)CNC(=O)[C@H](CCC(=O)O)NC(=O)CNC(=O)[C@@H](N)Cc1cnc[nH]1)C(C)C)C(C)C)C(C)C)C(=O)N[C@@H](C)C(=O)N[C@@H](C)C(=O)N[C@@H](CCCNC(=N)N)C(=O)N[C@@H](CC(=O)O)C(=O)N[C@@H](Cc1ccccc1)C(=O)N[C@H](C(=O)N[C@@H](CC(N)=O)C(=O)N[C@@H](Cc1c[nH]c2ccccc12)C(=O)N[C@@H](CC(C)C)C(=O)N[C@@H](CC(C)C)C(=O)N[C@@H](CCC(N)=O)C(=O)N[C@H](C(=O)N[C@@H](CCCCN)C(N)=O)[C@@H](C)O)C(C)C
IC50 (RAW264.7): 0.0107 nM

CC[C@H](C)[C@H](NC(=O)[C@H](CO)NC(=O)[C@H](Cc1ccc(O)cc1)NC(=O)[C@H](CC(=O)O)NC(=O)[C@H](CO)NC(=O)[C@@H](NC(=O)[C@H](Cc1ccccc1)NC(=O)[C@@H](NC(=O)CNC(=O)[C@H](CCC(=O)O)NC(=O)[C@@H](C)NC(=O)[C@@H](N)Cc1ccc(O)cc1)[C@@H](C)O)[C@@H](C)CC)C(=O)N[C@@H](C)C(=O)N[C@@H](CCSC)C(=O)N[C@@H](CC(=O)O)C(=O)N[C@@H](CCCCN)C(=O)N[C@H](C(=O)N[C@@H](Cc1cnc[nH]1)C(=O)N[C@@H](CCC(N)=O)C(=O)N[C@@H](CCC(N)=O)C(=O)N[C@@H](CC(=O)O)C(=O)N[C@@H](Cc1ccccc1)C(=O)N[C@H](C(=O)N[C@@H](CC(N)=O)C(=O)N[C@@H](Cc1c[nH]c2ccccc12)C(=O)N[C@@H](CC(C)C)C(=O)N[C@@H](CC(C)C)C(=O)N[C@@H](C)C(=O)N[C@@H](CCC(N)=O)C(=O)N[C@@H](CCCCN)C(N)=O)C(C)C)[C@@H](C)CC
IC50 (RAW264.7): 0.0401 nM | Activity (HEK293): Active

CC(C)C[C@H](NC(=O)[C@H](CCCCN)NC(=O)[C@H](CC(=O)O)NC(=O)[C@H](CC(C)C)NC(=O)[C@@H](NC(=O)[C@@H](NC(=O)[C@H](CO)NC(=O)[C@H](Cc1ccccc1)NC(=O)[C@H](CC(=O)O)NC(=O)[C@H](CO)NC(=O)[C@@H](NC(=O)[C@H](Cc1ccccc1)NC(=O)[C@H](CO)NC(=O)CNC(=O)[C@H](CCC(=O)O)NC(=O)CNC(=O)[C@@H](N)Cc1cnc[nH]1)C(C)C)C(C)C)C(C)C)C(=O)N[C@@H](C)C(=O)N[C@@H](C)C(=O)N[C@@H](CCCNC(=N)N)C(=O)N[C@@H](CC(=O)O)C(=O)N[C@@H](Cc1ccccc1)C(=O)N[C@H](C(=O)N[C@@H](CC(N)=O)C(=O)N[C@@H](Cc1c[nH]c2ccccc12)C(=O)N[C@@H](CC(C)C)C(=O)N[C@@H](CC(C)C)C(=O)N[C@@H](CCC(N)=O)C(=O)N[C@H](C(=O)N[C@@H](CCCCN)C(N)=O)[C@@H](C)O)C(C)C
IC50 (RAW264.7): 0.0096 nM

CC[C@H](C)[C@H](NC(=O)[C@H](CO)NC(=O)[C@H](CCSC)NC(=O)[C@H](CC(=O)O)NC(=O)[C@H](CO)NC(=O)CNC(=O)[C@H](Cc1ccccc1)NC(=O)[C@H](CO)NC(=O)CNC(=O)[C@H](CCC(=O)O)NC(=O)CNC(=O)[C@@H](N)Cc1cnc[nH]1)C(=O)N[C@@H](C)C(=O)N[C@@H](CC(C)C)C(=O)N[C@@H](CC(=O)O)C(=O)N[C@@H](CCCCN)C(=O)N[C@@H](CC(C)C)C(=O)N[C@@H](C)C(=O)N[C@@H](C)C(=O)N[C@@H](CCCNC(=N)N)C(=O)N[C@@H](CC(=O)O)C(=O)N[C@@H](Cc1ccccc1)C(=O)N[C@H](C(=O)N[C@@H](CC(N)=O)C(=O)N[C@@H](Cc1c[nH]c2ccccc12)C(=O)N[C@@H](CC(C)C)C(=O)N[C@@H](CC(C)C)C(=O)N[C@@H](CCC(N)=O)C(=O)N[C@H](C(=O)N[C@@H](CCCCN)C(=O)N[C@H](C(=O)N[C@H](C(=O)N[C@@H](CC(=O)O)C(N)=O)[C@@H](C)O)[C@@H](C)CC)[C@@H](C)O)C(C)C
Activity (Mus musculus [1]): 10% | Activity (MC3T3-E1): Non-Toxic | Activity [2]: Non-Toxic | Activity [3]: Non-Toxic | Activity (Mus musculus [4]): 21% | Activity (Mus musculus [5]): Active | IC50 (RAW264.7): 0.0182 nM | Activity (Mus musculus [6]): 6% | Activity (Mus musculus [7]): 28% | Activity (Mus musculus [8]): inactive | Activity (HEK293): Active | Activity (Mus musculus [9]): 37% | Activity (Mus musculus [10]): 70% | Activity (Mus musculus [11]): 34% | Activity [12]: Non-Toxic

CC[C@H](C)[C@H](NC(=O)[C@H](CO)NC(=O)[C@H](CCSC)NC(=O)[C@H](CCC(=O)O)NC(=O)[C@H](CO)NC(=O)[C@@H](NC(=O)[C@H](Cc1ccccc1)NC(=O)[C@H](CO)NC(=O)CNC(=O)[C@H](CCC(=O)O)NC(=O)CNC(=O)[C@@H](N)Cc1cnc[nH]1)C(C)C)C(=O)N[C@H](C(=O)N[C@@H](CC(C)C)C(=O)N[C@@H](CC(=O)O)C(=O)N[C@@H](CCCCN)C(=O)N[C@@H](CC(C)C)C(=O)N[C@@H](C)C(=O)N[C@@H](C)C(=O)N[C@@H](CCCNC(=N)N)C(=O)N[C@@H](CC(=O)O)C(=O)N[C@@H](Cc1ccccc1)C(=O)N[C@H](C(=O)N[C@@H](CC(N)=O)C(=O)N[C@@H](Cc1c[nH]c2ccccc12)C(=O)N[C@@H](CC(C)C)C(=O)N[C@@H](CC(C)C)C(=O)N[C@@H](CCC(N)=O)C(=O)N[C@H](C(=O)N[C@@H](CCCCN)C(N)=O)[C@@H](C)O)C(C)C)C(C)C
IC50 (RAW264.7): 4.63 nM

CC[C@H](C)[C@H](NC(=O)[C@H](CO)NC(=O)[C@H](CCSC)NC(=O)[C@H](CC(=O)O)NC(=O)[C@H](CO)NC(=O)[C@@H](NC(=O)[C@H](Cc1ccccc1)NC(=O)[C@H](CO)NC(=O)CNC(=O)[C@H](CCC(=O)O)NC(=O)CNC(=O)[C@@H](N)Cc1cnc[nH]1)C(C)C)C(=O)N[C@H](C(=O)N[C@@H](CC(C)C)C(=O)N[C@@H](CC(=O)O)C(=O)N[C@@H](CCCCN)C(=O)N[C@@H](CC(C)C)C(=O)N[C@@H](C)C(=O)N[C@@H](C)C(=O)N[C@@H](CCCNC(=N)N)C(=O)N[C@@H](CC(=O)O)C(=O)N[C@@H](Cc1ccccc1)C(=O)N[C@H](C(=O)N[C@@H](CC(N)=O)C(=O)N[C@@H](Cc1c[nH]c2ccccc12)C(=O)N[C@@H](CC(C)C)C(=O)N[C@@H](CC(C)C)C(=O)N[C@@H](CCC(N)=O)C(=O)N[C@H](C(=O)N[C@@H](CCCCN)C(N)=O)[C@@H](C)O)C(C)C)C(C)C
IC50 [13]: Non-Toxic

CC[C@H](C)[C@H](NC(=O)[C@H](CO)NC(=O)[C@H](Cc1ccccc1)NC(=O)[C@H](CC(=O)O)NC(=O)[C@H](CO)NC(=O)[C@@H](NC(=O)[C@H](Cc1ccccc1)NC(=O)[C@H](CO)NC(=O)CNC(=O)[C@H](CCC(=O)O)NC(=O)CNC(=O)[C@@H](N)Cc1cnc[nH]1)C(C)C)C(=O)N[C@@H](C)C(=O)N[C@@H](CC(C)C)C(=O)N[C@@H](CC(=O)O)C(=O)N[C@@H](CCCCN)C(=O)N[C@@H](CC(C)C)C(=O)N[C@@H](C)C(=O)N[C@@H](C)C(=O)N[C@@H](CCCNC(=N)N)C(=O)N[C@@H](CC(=O)O)C(=O)N[C@@H](Cc1ccccc1)C(=O)N[C@H](C(=O)N[C@@H](CC(N)=O)C(=O)N[C@@H](Cc1c[nH]c2ccccc12)C(=O)N[C@@H](CC(C)C)C(=O)N[C@@H](CC(C)C)C(=O)N[C@@H](CCC(N)=O)C(=O)N[C@H](C(=O)N[C@@H](CCCCN)C(N)=O)[C@@H](C)O)C(C)C
IC50 (RAW264.7): 0.18 nM

CSCC[C@H](NC(=O)[C@H](CC(=O)O)NC(=O)[C@H](CO)NC(=O)[C@@H](NC(=O)[C@H](Cc1ccccc1)NC(=O)[C@H](CO)NC(=O)CNC(=O)[C@H](CCC(=O)O)NC(=O)CNC(=O)[C@@H](N)Cc1cnc[nH]1)C(C)C)C(=O)N[C@@H](CO)C(=O)N[C@H](C(=O)N[C@H](C(=O)N[C@@H](CC(C)C)C(=O)N[C@@H](CC(=O)O)C(=O)N[C@@H](CCCCN)C(=O)N[C@@H](CC(C)C)C(=O)N[C@@H](C)C(=O)N[C@@H](C)C(=O)N[C@@H](CCCNC(=N)N)C(=O)N[C@@H](CC(=O)O)C(=O)N[C@@H](Cc1ccccc1)C(=O)N[C@H](C(=O)N[C@@H](CC(N)=O)C(=O)N[C@@H](Cc1c[nH]c2ccccc12)C(=O)N[C@@H](CC(C)C)C(=O)N[C@@H](CC(C)C)C(=O)N[C@@H](CCC(N)=O)C(=O)N[C@H](C(=O)N[C@@H](CCCCN)C(N)=O)[C@@H](C)O)C(C)C)C(C)C)C(C)C
IC50 (RAW264.7): 0.0116 nM
